# Measurements from patent US8871901B2, “Phage constructs, sequences and antigenic compositions for immunocontraception of animals” (Auburn University, priority 2010, dated 2014).
# Test system: cat oocyte ZP
# Test: Landscape phage library selection on cat oocytes with intact zona pellucida
# Format: binding
# Settings: 9-mer peptides displayed on landscape phage
# Excerpt: Using a strategy similar to the strategy of Examples 2, 5, and 7, 9-mer peptides that bind to cat oocyte ZP were identified using a landscape phage library. In this library, foreign (non-phage) 9-mer peptides are expressed in each pVIII copy over the phage surface resulting in thousands of peptide copies per phage particle. […] Sequences of the identified peptides are AGSSYTQDS (SEQ ID NO:53); EVNGGSADS (SEQ ID NO:54); EAYPGLDWD (SEQ ID NO:55); and VKSEDPSLN (SEQ ID NO:56).
row,Sequence,binding to cat ZP
1,AGSSYTQDS (Phage library random peptide insert) [SEQ ID NO:53],specifically recognize and bind to cat ZP
2,EAYPGLDWD (Phage library random peptide insert) [SEQ ID NO:55],specifically recognize and bind to cat ZP
3,EVNGGSADS (Phage library random peptide insert) [SEQ ID NO:54],specifically recognize and bind to cat ZP
4,VKSEDPSLN (Phage library random peptide insert) [SEQ ID NO:56],specifically recognize and bind to cat ZP

# Test system: pig oocyte ZP
# Test: Landscape phage library selection on pig oocytes with intact zona pellucida, after negative selection on cat, dog and cow oocytes
# Format: binding
# Settings: 9-mer peptides displayed on landscape phage
# Protocol: Using a strategy similar to the strategy of Example 2, 9-mer peptides that bind specifically to pig oocyte ZP were identified using a landscape phage library. In this library, foreign (non-phage) 9-mer peptides are expressed in each pVIII copy over the phage surface resulting in thousands of peptide copies per phage particle. […] Prior to phage display library selection on pig oocytes, negative selection steps on cat, dog and cow oocytes were performed. Sequences of the identified peptides are DPGLSLGDD (SEQ ID NO:41); AYNLGEGDT (SEQ ID NO:42); GQQGLNGDS (SEQ ID NO:43); DVGGGTGTE (SEQ ID NO:44); GPNSSDADS (SEQ ID NO:45); and GEGGYGSHD (SEQ ID NO:46).
row,Sequence,binding to pig ZP
1,AYNLGEGDT (Phage library random peptide insert) [SEQ ID NO:42],specifically recognize and bind to pig ZP
2,DPGLSLGDD (Phage library random peptide insert) [SEQ ID NO:41],specifically recognize and bind to pig ZP
3,DVGGGTGTE (Phage library random peptide insert) [SEQ ID NO:44],specifically recognize and bind to pig ZP
4,GEGGYGSHD (Phage library random peptide insert) [SEQ ID NO:46],specifically recognize and bind to pig ZP
5,GPNSSDADS (Phage library random peptide insert) [SEQ ID NO:45],specifically recognize and bind to pig ZP
6,GQQGLNGDS (Phage library random peptide insert) [SEQ ID NO:43],specifically recognize and bind to pig ZP

# Test system: dog oocyte ZP
# Test: Landscape phage library selection on dog oocytes with intact zona pellucida
# Format: binding
# Settings: 9-mer peptides displayed on landscape phage
# Excerpt: Using a strategy similar to the strategy of Examples 2 and 5, 9-mer peptides that bind to dog oocyte ZP were identified using a landscape phage library. In this library, foreign (non-phage) 9-mer peptides are expressed in each pVIII copy over the phage surface resulting in thousands of peptide copies per phage particle. […] Sequences of the identified peptides are DDLNSFVND (SEQ ID NO:47); ADLAAFYDD (SEQ ID NO:48); EPGGMVGSD (SEQ ID NO:49); DGVYLVGDD (SEQ ID NO:50); DWSGQDVEN (SEQ ID NO:51); and GMVGSGYDS (SEQ ID NO:52).
row,Sequence,binding to dog ZP
1,ADLAAFYDD (Phage library random peptide insert) [SEQ ID NO:48],specifically recognize and bind to dog ZP
2,DDLNSFVND (Phage library random peptide insert) [SEQ ID NO:47],specifically recognize and bind to dog ZP
3,DGVYLVGDD (Phage library random peptide insert) [SEQ ID NO:50],specifically recognize and bind to dog ZP
4,DWSGQDVEN (Phage library random peptide insert) [SEQ ID NO:51],specifically recognize and bind to dog ZP
5,EPGGMVGSD (Phage library random peptide insert) [SEQ ID NO:49],specifically recognize and bind to dog ZP
6,GMVGSGYDS (Phage library random peptide insert) [SEQ ID NO:52],specifically recognize and bind to dog ZP
